# Non-standard residues stand in square brackets, D forms with d. Residues, ends and D or L forms follow the SMILES beside them. pGlu = O=C1CC[C@@H](C(=O)O)N1; Thz = O=C(O)[C@@H]1CSCN1
# What was measured:
# [1] = system: T cells forming rosettes with sheep red blood cells; assay: T-cells forming rosette with sheep red blood cells; type: in vivo, mouse; settings: for No. rosette/10^6 spleen cells Var. %: versus controls
# Protocol: In the mouse, a cytotoxic-kind of hypersensivity reaction, evaluated in the test of T cells forming rosettes with sheep red blood cells, was used (S.D. Wilson Immunology, 1971, 21, 233). […]
# CD-I male mice weighing about 25 g are treated with PGTCA for 8 days. After 4 days from the start of the treatment the animals were immunized with 5×10^8 sheep red blood cells in 0.2 ml of PBS i.p. The rosette test was carried out 6 days after the immunization. The mice were killed and the spleen was removed and placed in ice cold Hank solution, triturated, homogenized and gauze filtered.
# 6×10^7 /ml of spleen cells +100 /μl of red blood cell suspension 3×10^8 /μul were mixed in 0.8 ml of Hank and stirred for 1 min.
# The samples were incubated for 24 h at 4° C. without stirring and then, after stirring, the number of rosette forming cells/ml was determined by the Burker apparatus.
# Swiss male mice = assay: Effects on the consequences of exposure to ionizing radiation; type: in vivo, mouse; settings: for Death-rate % 10 gg: 10 days after 700 r of x rays; for Death-rate % 15 gg: 15 days after 700 r of x rays
# Protocol: Swiss male mice weighing 30±5 g, divided in 7 groups of 20 animals each, were used according to the above reported schedule.
# The pharmacological treatments were carried out for 15 days before the irradiation and prosecuted up to the end of the experiment. The control animals received the vehicle alone.
# At the 15th day, all the animals were irradiated (Philip Metalix® apparatus, 180 KV, 15 mA, with Cu filter 0.5 mm +AI mm) with the administration of 700 r of x rays.
# All the animals were checked daily, for 15 days after irradiation. The radio-protection degree was calculated as survival % at 10 and 15 days.
# old rat = assay: Neurocerebral performances in the old rat; type: in vivo; settings: 10 mg/kg and even more at 50 mg/kg
# Male Wistar rats [2] = assay: Paracetamol intoxication in the rat, test after single i.p. administration; type: in vivo; settings: for Death rate % / % distribution of liver impairment degrees: degree 0 / % distribution of liver impairment degrees: degree 1 / % distribution of liver impairment degrees: degree 2 / % distribution of liver impairment degrees: degree 3: single administration; for Death rate %: 48 hours after paracetamol 5000 mg/kg oral; for % distribution of liver impairment degrees: degree 0: degree 0 = normal histologic examination; for % distribution of liver impairment degrees: degree 1: degree I = centrolobular necrosis less than 25% of the lobule; for % distribution of liver impairment degrees: degree 2: degree II = extended centrolobular necrosis; for % distribution of liver impairment degrees: degree 3: degree III = massive necrosis
# Description: (§1) Male Wistar rats, mean weight of 150±10 g were used, which, after suitable housing, were subjected to the test:
# (a) Test after single i.p. administration
# The animals were divided in 7 groups, comprising 20 animals each, according to the following scheme:
# II group: PGTCA 4.1 μmoles/kg i.p.
# III group: PGTCA 41 μmoles/kg i.p.
# IV group: PGTCA 205 μmoles/kg i.p.
# V group: PGA 4.1 μmoles/kg +TCA 4.1 μmoles/kg
# VI group: PGA 41 μmoles/kg +TCA 41 μmoles/kg
# VII group: PGA 205 umoles/kg +TCA 205 μmoles/kg.
# The animals of each group, fasting since 12 hours, were treated with paracetamol at the dose of 5000 mg/kg by the oral route. The different pharmacological treatments were carried out contemporaneously with the paracetamol administration. After 48 hours from treatment, the death-rate was assessed in the various experimental groups. The liver was taken from the surviving animals, sacrificed by decapitation, and from the dead animals and an histopathologic examination was carried out.
# The degree of liver impairment has been evaluated as: degree O: normal histologic examination degree I: centrolobular necrosis extended to less than 25% of the lobule degree II: extended centrolobular necrosis, with lesions bridging adjacent centrolobular areas degree III: massive necrosis.
# (§2) In order to evaluate the lesion degree, 6 different sections were taken from each organ.
# male rat = assay: Sexual behaviour of the male rat; type: in vivo; settings: latencies and frequences of sexual acts
# male rats = assay: Delayed-type hypersensitivity induced by dinitrochlorobenzene (DNCB); type: in vivo, rat
# Protocol: (§3) For this purpose, male adult rats (5-6 months old) were used as animal model with normal immuno-competent system, and old rats (17-18 months) as a paraphysiological immunodeficiency model.
# (§4) The PGTCA treatment has been carried out i.p. at the dose of 1, 10 or 50 mg/kg twice a day for 4 weeks. The used immunological tests were the delayed-type hypersensitivity induced by dinitrochlorobenzene (DNCB) and the T-lymphocyte response to concanavaline A (ConA).
# After 4 weeks of PGTCA pre-treatment (or vehicle), 0.02 ml of DNCB (solubilized in acetone at the concentration of 200 mg/ml) was applied to each animal (5 rats per group) on the cutis of the back, on an area of about 1 cm^2. The subsequent inflammatory reaction was evaluated by measuring the diameter of the reddish area by means of a thickness gauge from day 1 to day 7.
# During this period the animals were constantly treated.
# [3] = system: T-lymphocyte response to concanavaline A; assay: Test of blastization with ConA (3H-thymidine incorporation) after in vivo treatment; design: species or system rat; settings: for 3H-thymidine cpm/well: ConA 2.5 μg/ml; for 3H-thymidine increase %: versus untreated
# Protocol: as §3, §4
# After 4 weeks of PGTCA treatment at the doses of 1,10 and 50 mg/kg, the animals were sacrificed and the spleen was removed in sterile conditions. The isolation of lymphocytes was obtained by an isolimph gradient. The lymphocytes were incubated in micro-walls, at the concentration of 1×10^6 cells/ml, in the presence of ConA (2.5 μg/ml), for 48 hours. The mitogen activity was evaluated by incorporation of ^3 H-thymidine for 16 hours.
# Male Wistar rats [4] = assay: Paracetamol intoxication in the rat, test after repeated i.p. administration; type: in vivo; settings: for Death rate %: repeated administration (daily for 8 days and on), 48 hours after paracetamol 5000 mg/kg per os; for % distribution of liver impairment degrees: degree 0 / % distribution of liver impairment degrees: degree 1 / % distribution of liver impairment degrees: degree 2 / % distribution of liver impairment degrees: degree 3: repeated administration; for % distribution of liver impairment degrees: degree 0: degree 0 = normal histologic examination; for % distribution of liver impairment degrees: degree 1: degree I = centrolobular necrosis less than 25% of the lobule; for % distribution of liver impairment degrees: degree 2: degree II = extended centrolobular necrosis; for % distribution of liver impairment degrees: degree 3: degree III = massive necrosis
# Description: as §1
# The degree of liver impairment has been evaluated as: degree O: normal histologic examination […]
# degree II: extended centrolobular necrosis, with lesions bridging adjacent centrolobular areas degree III: massive necrosis.
# as §2
# (b) Test after repeated i.p. administration
# The same treatment schedule as in (a) was used.
# The animals of groups II-VII were treated daily for 8 days. At the 8th day, contemporaneously to the various considered pharmacological treatments, the animals of the 7 groups (fasting since 12 hours) were administered with paracetamol (5000 mg/kg per os).
# After 48 hours from the paracetamol administration, the surviving animals were examined and the liver was subjected to the histopathologic examination.
# [5] = Mice not sensitized with red blood cells, 100 mg/kg b.i.d. i.p. for 8 days
# [6] = PGTCA 4.1 microm/kg ip from 15 days before irradiation
# [7] = PGTCA 41 microm/kg ip from 15 days before irradiation
# [8] = PGTCA 205 microm/kg ip from 15 days before irradiation
# [9] = at the highest and at the intermediate dose
structure (smiles),measurement,setting,value
"O=C1CC[C@@H](C(=O)N2CSC[C@H]2C(=O)O)N1 [PGTCA, 3-L-pyroglutamyl-Lthiazolidine-4-carboxylic acid] ([pGlu]-[Thz]-OH)",No. rosette/10^6 spleen cells m ± E.S.,[1]; [5],790 ± 170 rosette/10^6 spleen cells
same,No. rosette/10^6 spleen cells Var. %,[1]; [5],-12%
same,No. rosette/10^6 spleen cells Var. %,"[1]; Mice sensitized with red blood cells, 100 mg/kg b.i.d. i.p. for 8 days",+41%
same,rosette number in comparison with the control,[1]; not sensitized animals,no significant change
same,rosette number in comparison with the control,[1]; sensitized animals,significant increase
same,Death-rate % 10 gg,Swiss male mice; [6],20%
same,Death-rate % 10 gg,Swiss male mice; [7],15%
same,Death-rate % 10 gg,Swiss male mice; [8],10%
same,Death-rate % 15 gg,Swiss male mice; [6],45%
same,Death-rate % 15 gg,Swiss male mice; [7],20%
same,Death-rate % 15 gg,Swiss male mice; [8],15%
same,radioprotective activity,Swiss male mice; [9],remarkable radioprotective activity
same,improving the neurocerebral performances,old rat,active
same,liver impairment by an high dose of paracetamol,"Male Wistar rats [2]; acute treatment, 205 μmoles/kg i.p. and 41 μmoles/kg i.p.",significant decrease
same,death-rate by paracetamol,Male Wistar rats [2]; [9],reduces the death-rate
same,Death rate %,Male Wistar rats [2]; PGTCA 4.1 microm/kg ip,85%
same,% distribution of liver impairment degrees: degree 0,Male Wistar rats [2]; PGTCA 4.1 microm/kg ip,0%
same,% distribution of liver impairment degrees: degree 1,Male Wistar rats [2]; PGTCA 4.1 microm/kg ip,0%
same,% distribution of liver impairment degrees: degree 2,Male Wistar rats [2]; PGTCA 4.1 microm/kg ip,10%
same,% distribution of liver impairment degrees: degree 3,Male Wistar rats [2]; PGTCA 4.1 microm/kg ip,90%
same,Death rate %,Male Wistar rats [2]; PGTCA 41 microm/kg ip,75%
same,% distribution of liver impairment degrees: degree 0,Male Wistar rats [2]; PGTCA 41 microm/kg ip,0%
same,% distribution of liver impairment degrees: degree 1,Male Wistar rats [2]; PGTCA 41 microm/kg ip,5%
same,% distribution of liver impairment degrees: degree 2,Male Wistar rats [2]; PGTCA 41 microm/kg ip,20%
same,% distribution of liver impairment degrees: degree 3,Male Wistar rats [2]; PGTCA 41 microm/kg ip,75%
same,Death rate %,Male Wistar rats [2]; PGTCA 205 microm/kg ip,60%
same,% distribution of liver impairment degrees: degree 0,Male Wistar rats [2]; PGTCA 205 microm/kg ip,5%
same,% distribution of liver impairment degrees: degree 1,Male Wistar rats [2]; PGTCA 205 microm/kg ip,15%
same,% distribution of liver impairment degrees: degree 2,Male Wistar rats [2]; PGTCA 205 microm/kg ip,15%
same,% distribution of liver impairment degrees: degree 3,Male Wistar rats [2]; PGTCA 205 microm/kg ip,65%
same,sexual behaviour,male rat,favourable influence
same,"response to DNCB, evaluated as inflammation area","male rats; old animals, already at the dose of 10 mg/kg",maximum enhancing increase
same,"response to DNCB, evaluated as inflammation area","male rats; young animals, only at the dose of 50 mg/kg",significant increase
same,3H-thymidine cpm/well,"[3]; Adult rats (5-6 months), 1 mg/kg i.p. twice a day for 4 weeks",31806 ± 970 cpm/well
same,3H-thymidine increase %,"[3]; Adult rats (5-6 months), 1 mg/kg",-2.1%
same,3H-thymidine cpm/well,"[3]; Adult rats (5-6 months), 10 mg/kg i.p. twice a day for 4 weeks",34165 ± 540 cpm/well
same,3H-thymidine increase %,"[3]; Adult rats (5-6 months), 10 mg/kg",+5.1%
same,3H-thymidine cpm/well,"[3]; Adult rats (5-6 months), 50 mg/kg i.p. twice a day for 4 weeks",35785 ± 240 cpm/well
same,3H-thymidine increase %,"[3]; Adult rats (5-6 months), 50 mg/kg",+10.1%
same,3H-thymidine cpm/well,"[3]; Old rats (17-18 months), 1 mg/kg i.p. twice a day for 4 weeks",23553 ± 923 cpm/well
same,3H-thymidine increase %,"[3]; Old rats (17-18 months), 1 mg/kg",+1.6%
same,3H-thymidine cpm/well,"[3]; Old rats (17-18 months), 10 mg/kg i.p. twice a day for 4 weeks",26012 ± 316 cpm/well
same,3H-thymidine increase %,"[3]; Old rats (17-18 months), 10 mg/kg",+12.3%
same,3H-thymidine cpm/well,"[3]; Old rats (17-18 months), 50 mg/kg i.p. twice a day for 4 weeks",27540 ± 439 cpm/well
same,3H-thymidine increase %,"[3]; Old rats (17-18 months), 50 mg/kg",+18.9%
same,Death rate %,Male Wistar rats [4]; PGTCA 4.1 microm/kg ip,85%
same,Death rate %,Male Wistar rats [4]; PGTCA 41 microm/kg ip,70%
same,Death rate %,Male Wistar rats [4]; PGTCA 205 microm/kg ip,50%
same,% distribution of liver impairment degrees: degree 0,Male Wistar rats [4]; PGTCA 4.1 microm/kg ip,0%
same,% distribution of liver impairment degrees: degree 1,Male Wistar rats [4]; PGTCA 4.1 microm/kg ip,0%
same,% distribution of liver impairment degrees: degree 2,Male Wistar rats [4]; PGTCA 4.1 microm/kg ip,10%
same,% distribution of liver impairment degrees: degree 3,Male Wistar rats [4]; PGTCA 4.1 microm/kg ip,90%
same,% distribution of liver impairment degrees: degree 0,Male Wistar rats [4]; PGTCA 41 microm/kg ip,0%
same,% distribution of liver impairment degrees: degree 1,Male Wistar rats [4]; PGTCA 41 microm/kg ip,0%
same,% distribution of liver impairment degrees: degree 2,Male Wistar rats [4]; PGTCA 41 microm/kg ip,35%
same,% distribution of liver impairment degrees: degree 3,Male Wistar rats [4]; PGTCA 41 microm/kg ip,65%
same,% distribution of liver impairment degrees: degree 0,Male Wistar rats [4]; PGTCA 205 microm/kg ip,5%
same,% distribution of liver impairment degrees: degree 1,Male Wistar rats [4]; PGTCA 205 microm/kg ip,15%
same,% distribution of liver impairment degrees: degree 2,Male Wistar rats [4]; PGTCA 205 microm/kg ip,25%
same,% distribution of liver impairment degrees: degree 3,Male Wistar rats [4]; PGTCA 205 microm/kg ip,55%

# Source: US4839387A, “Derivative of thiazolidine-4-carboxylic acid, its preparation and pharmaceutical compositions containing it” (Poli Industria Chimica S.P.A., priority 1987, dated 1989)
